pIC50: −log10 of the molar value.
Target: T1, acetylcholinesterase (Rattus norvegicus, UniProt P37136)
T1 construct: synaptosome-rich fraction containing endogenous acetylcholinesterase enzyme; from tissue; host or cells: rat cerebral cortex, synaptosome-rich fraction (Whittaker's P2 fraction: synaptosomes and mitochondria)
T1 sequence (P37136 32-614): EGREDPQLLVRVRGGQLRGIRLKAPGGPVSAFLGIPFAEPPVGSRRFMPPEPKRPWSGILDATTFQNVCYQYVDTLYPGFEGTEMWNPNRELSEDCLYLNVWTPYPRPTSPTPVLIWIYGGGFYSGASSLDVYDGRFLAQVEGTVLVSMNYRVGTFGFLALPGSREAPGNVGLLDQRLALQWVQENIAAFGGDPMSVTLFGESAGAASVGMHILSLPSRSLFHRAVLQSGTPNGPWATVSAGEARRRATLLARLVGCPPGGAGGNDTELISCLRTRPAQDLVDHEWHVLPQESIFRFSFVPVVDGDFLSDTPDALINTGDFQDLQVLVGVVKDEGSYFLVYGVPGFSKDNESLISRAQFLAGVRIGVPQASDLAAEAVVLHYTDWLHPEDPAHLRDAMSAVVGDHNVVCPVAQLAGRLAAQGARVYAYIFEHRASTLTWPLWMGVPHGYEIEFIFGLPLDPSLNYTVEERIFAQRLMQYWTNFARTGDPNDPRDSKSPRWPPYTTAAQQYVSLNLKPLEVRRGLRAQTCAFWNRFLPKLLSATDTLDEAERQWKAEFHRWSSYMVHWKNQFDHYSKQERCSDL
Experiment: Inhibition of acetylcholinesterase in rat cortex synaptosome-rich fraction (hydrolysis of labelled acetylcholine)
Assay type: biochemical
Procedure: Rats were killed by decapitation and the brains were rapidly extirpated. The cortex was dissected out on ice according to the method of Glowinski and Iversen. […] Homogenates were centrifuged at 1000× g for 10 minutes to remove cell nuclei and heavy debris. […] A portion of this synaptosome-rich fraction was added in triplicate to ice-cold pH 7.4 Krebs-Ringer medium.
Assay of acetylcholinesterase was carried out according to the method of Johnson and Russell. See C. […] Acetylcholine labelled in the acetate moiety was enzymatically hydrolyzed by incubation for 10 minutes at room temperature in the presence of the above synaptosome-rich fraction containing endogenous acetylcholinesterase enzyme. The reaction was terminated by addition of a "stopping mixture" containing chloroacetic acid (1.0M), sodium hydroxide (0.5M) and sodium cloride (2.0M) to the reaction vial. Toluene-based scintillation fluid was added to the vial, to extract the released labelled acetate into the organic phase. […] Thus, the sample can be counted directly in the same reaction vial, in which the hydrolysis of sample by acetylcholinesterase has occurred.
Inhibition of cholinesterase activity was estimated, in triplicate, in the presence of a wide range of concentrations (10^-9 to 10^-3 M).

## CCC=C1C2C=C(C)CC1(N)c1ccc(=O)[nH]c1C2 (stereo not drawn) [1-carbon Analog]
Compared with huperzine A
  inhibition of the cholinesterase enzyme (in words): inhibited the cholinesterase enzyme, but to a lesser extent than huperzine A
read-out: IC50 (extent of cholinesterase enzyme inhibition), rat cortex synaptosome-rich fraction, 10 min, room temperature, triplicate, 10^-9 to 10^-3 M
  pIC50: 4.00
Relative to synthesized huperzine A, the smaller this number, the more potent the compound
  IC50 /IC50 of Huperzine A: 166.6

Source: patent US5663344A, “Method for the synthesis of huperzine A and analogs thereof and compounds useful therein” (Mayo Foundation for Medical Education and Research, priority 1994, dated 1997)
